According to patent US5663175A, “Prodrugs of herpes TK inhibitors” (Merck & Co. Inc., priority 1994, dated 1997):

Biological target: herpes thymidine kinase (Human herpesvirus 1, UniProt P0DTH5)
Assay: Assay for inhibition of herpes thymidine kinase
Format: biochemical
Procedure: The assay mixture contains in a final volume of 110 microliters the following: 50 mM Tris-HCl, pH 7.5; 5 mM MgCl2; 5 mM ATP; 2 mM dithiothreitol (DTT); 2.5 mM KF; 0.25 mg/ml bovine serum albumin (BSA); […] thymidine labeled with either ^14 C or ^3 H; the compound being tested as inhibitor; and the viral thymidine kinase. The amount of enzyme, incubation time and temperature are adjusted so that no more than 20% of the substrate is converted to product in a reaction without inhibitor. At the end of the incubation period, 100 microliters of the assay mixture are spotted on a 25 mm disk of DEAE paper. The disks are washed three times with ethanol to remove unreacted thymidine and the amount of thymidine monophosphate produced is determined by scintillation counting of the disks. The results (in IC50) are calculated to give the concentration of inhibitor resulting in 50% inhibition of enzyme. The IC50 of L-58,340 is about 100 nM.

herpes thymidine kinase, sequence (P0DTH5 whole entry): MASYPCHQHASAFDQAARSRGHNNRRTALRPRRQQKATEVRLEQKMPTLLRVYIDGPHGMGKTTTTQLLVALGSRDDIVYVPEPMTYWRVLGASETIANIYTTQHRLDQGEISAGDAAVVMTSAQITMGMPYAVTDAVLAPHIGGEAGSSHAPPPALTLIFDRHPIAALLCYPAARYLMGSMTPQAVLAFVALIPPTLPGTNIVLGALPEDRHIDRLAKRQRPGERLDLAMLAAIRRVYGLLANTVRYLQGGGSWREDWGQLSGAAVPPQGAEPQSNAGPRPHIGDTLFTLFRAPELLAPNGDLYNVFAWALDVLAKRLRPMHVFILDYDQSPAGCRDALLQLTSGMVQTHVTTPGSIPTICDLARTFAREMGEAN

IC50 (2 mM labeled thymidine, 5 mM ATP, pH 7.5, read-out: IC50 (concentration of inhibitor resulting in 50% inhibition of enzyme)): ~100 nM
activity as an inhibitor of herpes thymidine kinase relative to its enantiomer (compared with its enantiomer): substantially more active
inhibition of herpes thymidine kinase (in words) (first principal finding): potent inhibitor
Compound: Nc1nc2c(ncn2C[C@H]2CCCC[C@H]2CO)c(=O)[nH]1 [L-758,340, 9-{[1(R)-hydroxymethyl-2(S)-cyclohexyl]methyl}guanine]
